Experiments:
[1] = test system: cell lines derived from T-ALL with high AKR1C3 expression; experiment: Ex vivo cytotoxicity in leukemia cell lines (summary); assay type: cell-based, human
Method: (§1) Leukemia cell lines were suspended in RPMI medium supplemented with FBS (Biosera), while ALL PDX cells were cultured in QBSF medium (Quality Biological Inc.,) supplemented with Flt-3 ligand (20 ng/ml, BioNovus Life Sciences) or IL7 (10-20 ng/ml, Jomar Life Research). Cells were inoculated according to the optimal cell density and incubated for 3h or overnight (37° C., 5% CO2). PDX cells and leukemia cell lines were treated with OBI-3424 ([…]) or medium control for 48 or 72 h, respectively. Viability was determined using Alamar Blue reduction assay or Cell Titer-Glo Luminescent Cell Viability Assay (Promega). The half-maximal inhibitory concentration (IC50) was used to calculate the interpolation of nonlinear regression curves by GraphPad Prism 7 software.
In order to evaluate the potential anti-leukemia activity of OBI-3424, ex vivo cytotoxicity assays were performed on a variety of leukemia cell lines. […] The difference in IC50 values between cell lines with high/medium AKR1C3 expression and low expression was statistically significant (P=0.0016).

ALL cell lines = experiment: Ex vivo cytotoxicity in ALL cell lines (summary); assay type: cell-based; details: Homo sapiens
Method: as §1
(§2) The expression levels of AKR1C3 protein was determined by Western blot analysis. The ex vivo cytotoxicity of OBI-3424 was determined using CellTiter-Glo assay and calculated as 50% maximum inhibitory concentration (IC50).

Reh cell line = experiment: Ex vivo cytotoxicity assay, leukemia cell lines; assay type: cell-based; details: Homo sapiens
Method: as §1, §2

MOLT-4 cell line = experiment: Ex vivo cytotoxicity assay, leukemia cell lines; assay type: cell-based; details: Homo sapiens
Method: as §1, §2

CCRF-CEM cell line = experiment: Ex vivo cytotoxicity assay, leukemia cell lines; assay type: cell-based; details: Homo sapiens
Method: as §1, §2

THP-1 cell line = experiment: Ex vivo cytotoxicity assay, leukemia cell lines; assay type: cell-based; details: Homo sapiens; Table 5: THP-1, AML (pediatric), 72 h; AKR1C3 expression Low
Method: as §1, §2

KG-1 cell line = experiment: Ex vivo cytotoxicity assay, leukemia cell lines; assay type: cell-based; details: Homo sapiens; Table 5: KG-1, Erythroleukemia, 72 h; AKR1C3 expression High
Method: as §1, §2

P31/FUJ cell line = experiment: Ex vivo cytotoxicity assay, leukemia cell lines; assay type: cell-based; details: Homo sapiens; Table 5: P31/FUJ, AML, 72 h; AKR1C3 expression Low
Method: as §1, §2

K-562 cell line = experiment: Ex vivo cytotoxicity assay, leukemia cell lines; assay type: cell-based; details: Homo sapiens, K562; Table 5: K-562, CML, 72 h; AKR1C3 expression Low
Method: as §1, §2

TALL-1 cell line = experiment: Ex vivo cytotoxicity assay, leukemia cell lines; assay type: cell-based; details: Homo sapiens
Method: as §1, §2

GR-ST cell line = experiment: Ex vivo cytotoxicity assay, leukemia cell lines; assay type: cell-based; details: Homo sapiens, B-ALL (transfected with G-CSF)
Method: as §1, §2

[2] = test system: HL-60, clone 15 cell line; experiment: Ex vivo cytotoxicity assay, leukemia cell lines; assay type: cell-based; details: Homo sapiens; Table 5: HL-60, clone 15, APL, 72 h; AKR1C3 expression Low
Method: as §1, §2

Kasumi-1 cell line = experiment: Ex vivo cytotoxicity assay, leukemia cell lines; assay type: cell-based; details: Homo sapiens; Table 5: Kasumi-1, AML, 72 h; AKR1C3 expression Low
Method: as §1, §2

SUP-T1 cell line = experiment: Ex vivo cytotoxicity assay, leukemia cell lines; assay type: cell-based; details: Homo sapiens
Method: as §1, §2

NOMO-1 cell line = experiment: Ex vivo cytotoxicity assay, leukemia cell lines; assay type: cell-based; details: Homo sapiens, AKR1C3 expression Medium
Method: as §1, §2

P30/OHK cell line = experiment: Ex vivo cytotoxicity assay, leukemia cell lines; assay type: cell-based; details: Homo sapiens; Table 5: P30/OHK, T-ALL (pediatric), 72 h; AKR1C3 expression Low
Method: as §1, §2

Jurkat cell line = experiment: Ex vivo cytotoxicity assay, leukemia cell lines; assay type: cell-based; details: Homo sapiens
Method: as §1, §2

[3] = test system: Jurkat, clone E6-1 cell line; experiment: Ex vivo cytotoxicity assay, leukemia cell lines; assay type: cell-based; details: Homo sapiens
Method: as §1, §2

TF-1 cell line = experiment: Ex vivo cytotoxicity assay, leukemia cell lines; assay type: cell-based; details: Homo sapiens; Table 5: TF-1, Erythroleukemia, 72 h; AKR1C3 expression Medium
Method: as §1, §2

P116 cell line = experiment: Ex vivo cytotoxicity assay, leukemia cell lines; assay type: cell-based; details: Homo sapiens
Method: as §1, §2

ATN-1 cell line = experiment: Ex vivo cytotoxicity assay, leukemia cell lines; assay type: cell-based; details: Homo sapiens; Table 5: ATN-1, T-ALL (adult), 72 h; AKR1C3 expression Low
Method: as §1, §2

Mono-Mac-6 cell line = experiment: Ex vivo cytotoxicity assay, leukemia cell lines; assay type: cell-based; details: Homo sapiens; Table 5: Mono-Mac-6, AML-M5, 72 h; AKR1C3 expression Low
Method: as §1, §2

PF-382 cell line = experiment: Ex vivo cytotoxicity assay, leukemia cell lines; assay type: cell-based; details: Homo sapiens
Method: as §1, §2

In the case of `C[C@H](OP(=O)(N1CC1)N1CC1)c1ccc([N+](=O)[O-])c(Oc2cccc(C(=O)N(C)C)c2)c1` [OBI-3424], the IC50 values [1] is reported as “low nmol/L range”, the IC50 (ALL cell lines; 6 types of cell lines expressing high (strong) levels of AKR1C3) is reported as 3 to 30 nM and the IC50 (ALL cell lines; cell lines with medium AKR1C3 expression levels) is reported as 3 to 84 nM. It also gave an IC50 (Reh cell line; Table 4: Reh, BCP-ALL, AKR1C3 expression Medium, CellTiter-Glo) of 3 nM, an IC50 (Reh cell line; Table 5: Reh, ALL (non-T, non-B), 72 h, AKR1C3 expression Low) of 3 nM and an IC50 (MOLT-4 cell line; Table 4: MOLT-4, T-ALL, AKR1C3 expression Strong, CellTiter-Glo) of 10 nM. It also gave an IC50 (MOLT-4 cell line; Table 5: MOLT-4, T-ALL, 72 h, AKR1C3 expression Medium) of 10 nM, an IC50 (CCRF-CEM cell line; Table 4: CCRF-CEM, T-ALL (child), AKR1C3 expression Strong, CellTiter-Glo) of 3.7 nM and an IC50 (CCRF-CEM cell line; Table 5: CCRF-CEM, T-ALL, 72 h, AKR1C3 expression High) of 3.7 nM. It also gave an IC50 (THP-1 cell line) of over 1000 nM, an IC50 (KG-1 cell line) of 153 nM and an IC50 (P31/FUJ cell line) of over 1000 nM. The IC50 (K-562 cell line) was over 1000 nM, the IC50 (TALL-1 cell line; Table 4: TALL-1, T-ALL (child), AKR1C3 expression Strong, CellTiter-Glo) was 30 nM and the IC50 (TALL-1 cell line; Table 5: TALL-1, T-ALL (pediatric), 72 h, AKR1C3 expression Medium) was 30 nM. For the same compound, the IC50 (GR-ST cell line; Table 4: GR-ST, AKR1C3 expression Strong, CellTiter-Glo) was 9.9 nM, the IC50 (GR-ST cell line; Table 5: GR-ST, 72 h, AKR1C3 expression Medium) was 9.9 nM and the IC50 [2] was 87 nM. For the same compound, the IC50 (Kasumi-1 cell line) was over 1000 nM, the IC50 (SUP-T1 cell line; Table 4: SUP-T1, T-ALL (child), AKR1C3 expression Strong, CellTiter-Glo) was 3 nM and the IC50 (SUP-T1 cell line; Table 5: SUP-T1, T-ALL (pediatric), 72 h, AKR1C3 expression Medium) was 3 nM. The IC50 (NOMO-1 cell line; Table 4: NOMO-1, AML (acute monocytic), CellTiter-Glo) was 11 nM, the IC50 (NOMO-1 cell line; Table 5: NOMO-1, T-ALL (adult), 72 h) was 11 nM and the IC50 (P30/OHK cell line) was over 1000 nM. For the same compound, the IC50 (Jurkat cell line; Table 4: Jurkat, T-ALL (child), AKR1C3 expression Medium, CellTiter-Glo) was 40 nM, the IC50 (Jurkat cell line; Table 5: Jurkat, T-ALL (pediatric), 72 h, AKR1C3 expression Low) was 40 nM and the IC50 ([3]; Table 4: Jurkat, Clone E6-1, T-ALL (child), AKR1C3 expression Medium, CellTiter-Glo) was 24 nM. For the same compound, the IC50 ([3]; Table 5: Jurkat, clone E6-1, T-ALL, 72 h, AKR1C3 expression Low) was 24 nM, the IC50 (TF-1 cell line) was 2.8 nM and the IC50 (P116 cell line; Table 4: P116, T-ALL (Jurkat mutant), AKR1C3 expression Medium, CellTiter-Glo) was 84 nM. It also gave an IC50 (P116 cell line; Table 5: P116, Jurkat mutant, 72 h, AKR1C3 expression Low) of 84 nM, an IC50 (ATN-1 cell line) of over 1000 nM and an IC50 (Mono-Mac-6 cell line) of 29.8 nM. For the same compound, the IC50 (PF-382 cell line; Table 4: PF-382, T-ALL (child), AKR1C3 expression Strong, CellTiter-Glo) was 15 nM and the IC50 (PF-382 cell line; Table 5: PF-382, T-ALL (pediatric), 72 h, AKR1C3 expression Medium) was 15 nM.
